Experimental data reported in ChEMBL document CHEMBL1126473, “Benzolactams as non-peptide cholecystokinin receptor ligands” (Bioorg Med Chem Lett, 1993).

target: not listed separately; assay: Ability to inhibit the binding of [125I]CCK-8 to Cholecystokinin type B receptor in guinea pig cortex.

Row | Structure (SMILES) | IC50 [µM]
1 | CCOC(=O)CN1C(=O)C(NC(=O)Nc2ccc(Cl)cc2)N=C(c2ccccc2)c2ccccc21 (configuration not stated) | 0.001
2 | O=C(Nc1ccc(Cl)cc1)NC1N=C(c2ccccc2)c2ccccc2N(CC(=O)N2CCCC2)C1=O (configuration not stated) | 0.00028

target: T1, Cholecystokinin receptor type A (Rattus norvegicus, UniProt P30551); assay: Ability to inhibit the binding of [125I]CCK-8 to Cholecystokinin type A receptor in rat pancreas.
T1 sequence (P30551 whole entry): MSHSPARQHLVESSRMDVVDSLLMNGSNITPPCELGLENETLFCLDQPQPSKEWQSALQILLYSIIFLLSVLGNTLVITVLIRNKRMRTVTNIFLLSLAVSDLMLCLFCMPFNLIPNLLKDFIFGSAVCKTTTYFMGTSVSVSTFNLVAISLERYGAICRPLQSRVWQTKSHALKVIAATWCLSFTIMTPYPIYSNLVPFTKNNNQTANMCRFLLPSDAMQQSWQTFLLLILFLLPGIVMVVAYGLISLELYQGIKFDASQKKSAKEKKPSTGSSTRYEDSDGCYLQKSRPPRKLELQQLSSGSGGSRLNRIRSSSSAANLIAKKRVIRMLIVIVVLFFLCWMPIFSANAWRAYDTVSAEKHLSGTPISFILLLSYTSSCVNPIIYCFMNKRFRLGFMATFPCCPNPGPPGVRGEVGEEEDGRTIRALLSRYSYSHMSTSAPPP

Row | IC50 [µM] | Structure (SMILES)
3 | 0.13 | Cc1cccc(NC(=O)NC2CCc3ccccc3N(CC(=O)N3CCCC3)C2=O)c1 (configuration not stated)
4 | 0.335 | COc1cccc(NC(=O)N[C@H]2CCc3ccccc3N(CC(=O)N3CCCC3)C2=O)c1
5 | 0.0075 | CC(C)(C)OC(=O)CN1C(=O)C(NC(=O)c2ccc3ccccc3c2)CCc2ccccc21 (configuration not stated)
6 | 0.14 | Cc1cccc(NC(=O)NC2CCc3ccccc3N(CC(=O)OC(C)(C)C)C2=O)c1 (configuration not stated)
7 | 1 | Cc1cccc(NC(=O)N[C@H]2CCc3ccccc3N(CC(=O)N3CCCC3)C2=O)c1
8 | 0.03 | Cc1cccc(NC(=O)N[C@@H]2CCc3ccccc3N(CC(=O)N3CCCC3)C2=O)c1
9 | 0.028 | COc1cccc(NC(=O)N[C@@H]2CCc3ccccc3N(CC(=O)N3CCCC3)C2=O)c1
10 | 0.062 | COc1cccc(NC(=O)NC2CCc3ccccc3N(CC(=O)OC(C)(C)C)C2=O)c1 (configuration not stated)

target: not listed separately; assay: Ability to inhibit the binding of [125I]-gastrin to gastric glands in guinea pig.

Row | Structure (SMILES) | IC50 [µM]
11 | CCOC(=O)CN1C(=O)C(NC(=O)Nc2ccc(Cl)cc2)N=C(c2ccccc2)c2ccccc21 (configuration not stated) | 0.0033
12 | O=C(Nc1ccc(Cl)cc1)NC1N=C(c2ccccc2)c2ccccc2N(CC(=O)N2CCCC2)C1=O (configuration not stated) | 0.0005
